Measured values taken from patent publication US11732264B2, “Compositions and methods for treating COVID-19” (Vast Sea Biotechnology, Inc., priority 2020, dated 2023).
Like-named read-outs stand apart in the source and are kept apart here. d = 2'-deoxy (DNA); r = 2'-OH (RNA)

Key:
Format in all cases: cell-based
[1] = test system: SARS-CoV-2 N-protein; conditions: HNEpC, qRT-PCR
[2] = test system: SARS-CoV-2 N-protein; conditions: HBTEC, qRT-PCR
[3] = test system: SARS-CoV-2 N-protein; conditions: HSAEC, qRT-PCR
[4] = oligos 24-48 hours, lipofectamine or Arginine not stated at the result
[5] = oligos 24-48 hours, with lipofectamine

VS_DsiRNA-Cy5: DsiRNA SEQ ID NOs: 23 & 24, target N-protein, Cy5 labeled (chain 1 AAACUAAAAUGUCUGAUAAUGGACC; chain 2 GGUCCAUUAUCAGACAUUUUAGUUUGU; chain 1: sugars from the 5' end r23 d2, backbone not given here; chain 2: chemistry not given here; Cy5 label)
down-regulation of SARS-CoV-2 N-protein expression [1, 4]: about 90 fold
down-regulation of SARS-CoV-2 N-protein expression [2, 5]: about 4 fold
down-regulation of SARS-CoV-2 N-protein expression [3, 5]: about 5 fold

TGTTAATTGGAACGCCTTGTC (FANA modified, pattern not given here, FITC label) [VS_ASO_1-FANA-FITC]
down-regulation of SARS-CoV-2 N-protein expression ([1]; without any reagents): about 350 fold
down-regulation of SARS-CoV-2 N-protein expression ([2]; without any reagents): about 8 fold
down-regulation of SARS-CoV-2 N-protein expression ([3]; oligo 24-48 hours, without any reagents): about 6 fold

TGTTAATTGGAACGCCTTGTC (Cy3 label, position not given here) [VS_ASO_2-Cy3]
down-regulation of SARS-CoV-2 N-protein expression [1, 4]: about 15 fold
down-regulation of SARS-CoV-2 N-protein expression [2, 5]: about 6 fold
down-regulation of SARS-CoV-2 N-protein expression [3, 5]: about 1.5 fold
